According to publication PMC3961306, “Comparison of the Cancer Gene Targeting and Biochemical Selectivities of All Targeted Kinase Inhibitors Approved for Clinical Use” (PLoS ONE, 2014):
Like-named read-outs stand apart in the source and are kept apart here.

Legend:
Experiment in all cases: Kinase profiling in a biochemical assay panel (mobility shift assays and ELISA), %-inhibition at 1 μM; selectivity entropy
[1] = molecular target: panel of more than 300 wild-type and mutant kinases (313 kinase panel) (Homo sapiens, UniProt Q9H2X6)
[2] = molecular target: T1, panel of more than 300 wild-type and mutant kinases (313 kinase panel) (Homo sapiens, UniProt P42680)
T1 sequence (P42680 1-631): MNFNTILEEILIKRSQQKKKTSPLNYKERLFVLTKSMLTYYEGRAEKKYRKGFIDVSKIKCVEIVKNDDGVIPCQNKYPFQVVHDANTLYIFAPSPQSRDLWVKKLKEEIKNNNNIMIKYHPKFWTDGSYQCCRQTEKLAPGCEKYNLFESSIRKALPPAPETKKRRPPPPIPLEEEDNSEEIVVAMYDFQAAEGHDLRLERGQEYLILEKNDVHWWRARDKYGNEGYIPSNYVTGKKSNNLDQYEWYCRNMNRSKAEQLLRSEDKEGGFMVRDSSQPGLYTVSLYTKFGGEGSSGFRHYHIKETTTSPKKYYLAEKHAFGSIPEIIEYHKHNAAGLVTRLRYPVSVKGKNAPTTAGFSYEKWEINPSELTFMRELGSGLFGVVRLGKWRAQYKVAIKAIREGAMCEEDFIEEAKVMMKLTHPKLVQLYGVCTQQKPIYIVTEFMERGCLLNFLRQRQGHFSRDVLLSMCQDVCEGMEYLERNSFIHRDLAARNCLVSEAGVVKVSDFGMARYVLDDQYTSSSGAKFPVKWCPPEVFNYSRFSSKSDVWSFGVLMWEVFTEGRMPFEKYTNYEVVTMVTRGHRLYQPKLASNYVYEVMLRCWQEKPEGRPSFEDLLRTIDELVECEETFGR

[3] = molecular target: panel of more than 300 wild-type and mutant kinases (313 kinase panel) (Homo sapiens, UniProt P22694)
[4] = molecular target: panel of more than 300 wild-type and mutant kinases (313 kinase panel) (Homo sapiens, UniProt Q15759)
[5] = molecular target: panel of more than 300 wild-type and mutant kinases (313 kinase panel) (Homo sapiens, UniProt P29376)
[6] = molecular target: panel of more than 300 wild-type and mutant kinases (313 kinase panel) (Homo sapiens, UniProt Q13627)
[7] = molecular target: T2, panel of more than 300 wild-type and mutant kinases (313 kinase panel) (Homo sapiens, UniProt O15530)
T2 sequence (O15530 1-556): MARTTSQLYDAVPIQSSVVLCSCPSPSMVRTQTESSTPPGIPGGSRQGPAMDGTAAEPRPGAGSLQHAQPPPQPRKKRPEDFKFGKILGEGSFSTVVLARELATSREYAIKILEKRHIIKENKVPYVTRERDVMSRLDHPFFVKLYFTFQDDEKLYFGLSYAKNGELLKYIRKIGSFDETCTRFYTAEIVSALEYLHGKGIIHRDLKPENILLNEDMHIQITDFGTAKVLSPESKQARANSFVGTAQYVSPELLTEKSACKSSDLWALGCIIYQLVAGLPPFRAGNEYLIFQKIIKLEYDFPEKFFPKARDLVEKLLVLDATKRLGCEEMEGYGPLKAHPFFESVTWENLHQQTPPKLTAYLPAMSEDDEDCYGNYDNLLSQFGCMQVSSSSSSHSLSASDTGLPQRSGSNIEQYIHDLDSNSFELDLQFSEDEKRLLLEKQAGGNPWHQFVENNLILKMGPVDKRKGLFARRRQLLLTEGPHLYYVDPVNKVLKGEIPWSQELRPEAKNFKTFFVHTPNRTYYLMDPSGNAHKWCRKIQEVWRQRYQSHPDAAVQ

[8] = molecular target: panel of more than 300 wild-type and mutant kinases (313 kinase panel) (Homo sapiens, UniProt P43405)
[9] = molecular target: T3, panel of more than 300 wild-type and mutant kinases (313 kinase panel) (Homo sapiens, UniProt P33981)
T3 sequence (P33981 1-857): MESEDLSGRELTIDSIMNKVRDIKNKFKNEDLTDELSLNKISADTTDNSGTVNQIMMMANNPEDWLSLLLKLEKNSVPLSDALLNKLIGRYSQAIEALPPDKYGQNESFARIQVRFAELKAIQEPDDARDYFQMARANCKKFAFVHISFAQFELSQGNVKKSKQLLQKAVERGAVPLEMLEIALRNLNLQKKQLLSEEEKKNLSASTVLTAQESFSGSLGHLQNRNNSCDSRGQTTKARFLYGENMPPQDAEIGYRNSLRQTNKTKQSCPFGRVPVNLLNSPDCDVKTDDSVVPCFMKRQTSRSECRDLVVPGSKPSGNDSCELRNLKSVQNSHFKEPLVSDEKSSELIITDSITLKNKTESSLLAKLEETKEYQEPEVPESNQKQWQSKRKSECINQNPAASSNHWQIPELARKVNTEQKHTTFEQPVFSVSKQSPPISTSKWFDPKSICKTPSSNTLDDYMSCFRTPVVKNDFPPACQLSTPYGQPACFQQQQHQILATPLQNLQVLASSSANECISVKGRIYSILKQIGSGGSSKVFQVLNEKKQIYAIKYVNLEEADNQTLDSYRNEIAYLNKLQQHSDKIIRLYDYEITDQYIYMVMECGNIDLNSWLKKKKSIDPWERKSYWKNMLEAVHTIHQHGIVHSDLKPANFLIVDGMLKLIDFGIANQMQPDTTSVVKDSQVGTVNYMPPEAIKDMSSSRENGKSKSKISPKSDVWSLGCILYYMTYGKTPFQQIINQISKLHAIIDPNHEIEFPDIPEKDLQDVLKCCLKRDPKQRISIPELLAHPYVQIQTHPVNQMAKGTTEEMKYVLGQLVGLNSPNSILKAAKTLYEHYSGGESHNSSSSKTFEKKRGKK

[10] = kinase DYRK1A, compound at 1 μM

CS(=O)(=O)CCNCc1ccc(-c2ccc3ncnc(Nc4ccc(OCc5cccc(F)c5)c(Cl)c4)c3c2)o1 [lapatinib]
%-inhibition of HIPK2 ([1]; kinase HIPK2, compound at 1 μM): 1.46%
%-inhibition of TEC ([2]; kinase TEC, 1 μM): 0%
%-inhibition of PKACβ ([3]; kinase PKACβ, 1 μM): -3%
%-inhibition of p38β ([4]; kinase p38β, 1 μM): -10%
%-inhibition of LTK ([5]; kinase LTK, compound at 1 μM): 4.66%
%-inhibition of DYRK1A [6]: 3.25%
%-inhibition of PDK1 ([7]; 1 µM): -2.71%
%-inhibition of SYK ([8]; kinase SYK, 1 μM): 0%
%-inhibition of TTK ([9]; kinase TTK, compound at 1 μM): 0.257%

COc1cc2nccc(Oc3ccc(NC(=O)C4(C(=O)Nc5ccc(F)cc5)CC4)cc3)c2cc1OC [cabozantinib]
%-inhibition of HIPK2 ([1]; kinase HIPK2, compound at 1 μM): 60%
%-inhibition of TEC ([2]; kinase TEC, 1 μM): 43%
%-inhibition of PKACβ ([3]; kinase PKACβ, 1 μM): -4.25%
%-inhibition of p38β ([4]; kinase p38β, 1 μM): 33%
%-inhibition of LTK ([5]; kinase LTK, compound at 1 μM): 61%
%-inhibition of DYRK1A [6, 10]: -5%
%-inhibition of PDK1 ([7]; kinase PDK1, 1 μM): -7%
%-inhibition of SYK ([8]; kinase SYK, 1 μM): -3%
%-inhibition of TTK ([9]; kinase TTK, compound at 1 μM): 2.75%

N#CC[C@H](C1CCCC1)n1cc(-c2ncnc3[nH]ccc23)cn1 [ruxolitinib]
%-inhibition of HIPK2 ([1]; 1 µM): 9%
%-inhibition of TEC ([2]; kinase TEC, 1 μM): 18%
%-inhibition of PKACβ ([3]; 1 µM): 39%
%-inhibition of p38β ([4]; 1 µM): -0.778%
%-inhibition of LTK ([5]; kinase LTK, compound at 1 μM): 97%
%-inhibition of DYRK1A [6, 10]: -5%
%-inhibition of PDK1 ([7]; kinase PDK1, 1 μM): -3.16%
%-inhibition of SYK ([8]; 1 µM): 20%
%-inhibition of TTK ([9]; kinase TTK, compound at 1 μM): 2%

Cc1cn(-c2cc(NC(=O)c3ccc(C)c(Nc4nccc(-c5cccnc5)n4)c3)cc(C(F)(F)F)c2)cn1 [nilotinib]
%-inhibition of HIPK2 ([1]; kinase HIPK2, compound at 1 μM): 16%
%-inhibition of TEC ([2]; kinase TEC, 1 μM): -0.144%
%-inhibition of PKACβ ([3]; 1 µM): 28%
%-inhibition of p38β ([4]; kinase p38β, 1 μM): 96%
%-inhibition of LTK ([5]; kinase LTK, compound at 1 μM): 7.51%
%-inhibition of DYRK1A [6]: -6.52%
%-inhibition of PDK1 ([7]; kinase PDK1, 1 μM): -4.33%
%-inhibition of SYK ([8]; kinase SYK, 1 μM): 54%
%-inhibition of TTK ([9]; kinase TTK, compound at 1 μM): -8%

C#Cc1cccc(Nc2ncnc3cc(OCCOC)c(OCCOC)cc23)c1 [erlotinib]
%-inhibition of HIPK2 ([1]; 1 µM): 10%
%-inhibition of TEC ([2]; 1 µM): 20%
%-inhibition of PKACβ ([3]; 1 µM): -3%
%-inhibition of p38β ([4]; 1 µM): -4%
%-inhibition of LTK ([5]; 1 µM): 41%
%-inhibition of DYRK1A [6]: 20%
%-inhibition of PDK1 ([7]; 1 µM): 3%
%-inhibition of SYK ([8]; 1 µM): 17%
%-inhibition of TTK ([9]; 1 µM): 6.42%
